Assay [1] has as its system methylmalonyl CoA mutase (MCM). The note with it: brain astrocytes, in vitro; cited from earlier work.
The test system of another assay is serum homocysteine. Kind of assay: L-isoleucine therapy for 10 weeks in postmenopausal women: serum homocysteine. It counts as in vivo, human. How it is done: L-isoleucine therapy (3-5 grams/day divided into two doses per day) was administered to 17 postmenopausal women for 10 weeks. The L-isoleucine therapy was associated with an 11% average reduction in serum homocysteine levels among 14 post menopausal woman experiencing hot flashes.

Where “and” joins values, the source holds several entries; their conditions need not be identical. Identical values can stand only once. A value given as a limit tells only on which side of the number the result lay.

As to `CC(C)[C@H](N)C(=O)O` [valine], the “upregulation of the expression of MCM message” value (shortened to “upregulation”) in assay [1] is listed as 4 fold.

As to `CCC(=O)SCCNC(=O)CCNC(=O)[C@H](O)C(C)(C)COP(=O)(O)OP(=O)(O)OC[C@H]1O[C@@H](n2cnc3c(N)ncnc32)[C@H](O)[C@@H]1OP(=O)(O)O` [propionyl CoA], in assay [1], the “upregulation” value is 4 fold.

Take `CC[C@H](C)[C@H](N)C(=O)O` [L-isoleucine]: the “upregulation” value in assay [1] is recorded as 4 fold. Moreover, the “average reduction in serum homocysteine levels” value with serum homocysteine (among 14 post menopausal women experiencing hot flashes, 10 weeks) is listed as 11%. Moreover, the “reduction in serum homocysteine” value in the assay on serum homocysteine (in 2 participants) is on record as greater than 30%; with serum homocysteine (in 5 participants), greater than 20%. In addition, the homocysteine in the assay with serum homocysteine (individual participants, 10 week values (l), L-isoleucine 3-5 grams/day divided into two doses) is 9.8 umol/L and 4.8 umol/L and 7 umol/L (2×) and 7.1 umol/L and 8.7 umol/L and 7.9 umol/L and 6.1 umol/L and 10.8 umol/L and 8.3 umol/L (2×) and 5.1 umol/L and 6.6 umol/L and 6.7 umol/L. For the same compound, the “% reduction (homocysteine)” value with serum homocysteine (individual participants, 10 week vs baseline, given as fraction) is 0.3043 and 0.2473 and 0.01389 and 0 and 0.1319 and 0.04688 and 0.01408 and 0.009174 and −0.2388 and 0.03488 and 0.1774 and 0.2235 and 0.3021 and 0.2632.

Values taken from patent US20060252699A1, “Method for lowering serum homocysteine” (priority 2004, published 2006).
